{
  "source": "paper PMC3764824",
  "about": "“Base-modified Donor Analogues Reveal Novel Dynamic Features of a Glycosyltransferase” (The Journal of Biological Chemistry, 2013)",
  "molecules": {"B1": {"name": "AAGlyB (GTA-L266G/G268A) (Homo sapiens; G268A/L266G) (protein)", "chain": "VSLPRMVYPQPKVLTPCRKDVLVVTPWLAPIVWEGTFNIDILNEQFRLQNTTIGLTVFAIKKYVAFLKLFLETAEKHFMVGHRVHYYVFTDQPAAVPRVTLGTGRQLSVLEVRAYKRWQDVSMRRMEMISDFCERRFLSEVDYLVCVDVDMEFRDHVGVEILTPLFGTLHPGFYGSSREAFTYERRPQSQAYIPKDEGDFYYGGAFFGGSVQEVQRLTRACHQAMMVDQANGIEAVWHDESHLNKYLLRHKPTKVLSPEYLWDQQLLGWPAVLRKLRFTAVPKNHQAVRNP", "notes": "soluble catalytic domain, N-terminally truncated (forward primer MIN2 encodes …; C-terminus ...NP at residue 354), made in E. coli BL21-gold from pCWdeltalac; SP-Sepharose and UDP-hexanolamine-Sepharose; residues 58-354 stated ordered in UDP-HAA crystal"}},
  "key": {"[1]": {"biological_target": "T1, AAGlyB (GTA-L266G/G268A) (Homo sapiens, UniProt P16442, L266G/G268A)", "T1 construct": "gene ABO; soluble catalytic domain, N-terminally truncated (forward primer MIN2 encodes MVSLPRMVYPQP; C-terminus ...NP at residue 354), made in E. coli BL21-gold from pCWdeltalac; SP-Sepharose and UDP-hexanolamine-Sepharose; residues 58-354 stated ordered in UDP-HAA crystal", "T1 sequence (P16442 64-354 L266G/G268A)": "B1 chain", "assay": "X-ray crystallography ([…] Å)", "format": "binding", "settings": "ternary complex with HAA; UDP carried over from purification"}, "[2]": {"biological_target": "T2, AAGlyB (GTA-L266G/G268A) (Homo sapiens, UniProt P16442, G268A/L266G)", "T2 construct": "gene ABO; soluble catalytic domain, N-terminally truncated (forward primer MIN2 encodes MVSLPRMVYPQP; C-terminus ...NP at residue 354), made in E. coli BL21-gold from pCWdeltalac; SP-Sepharose and UDP-hexanolamine-Sepharose; residues 58-354 stated ordered in UDP-HAA crystal", "T2 sequence (P16442 64-354 L266G/G268A)": "B1 chain", "assay": "radiochemical Sep-Pak assay, Dixon plot", "format": "biochemical", "settings": "read-out: 2", "description": "radiochemical Sep-Pak assay, Dixon plot on AAGlyB (GTA-L266G/G268A)"}, "[3]": {"biological_target": "T1, AAGlyB (GTA-L266G/G268A)", "assay": "capillary electrophoresis with LIF detection", "format": "biochemical", "settings": "labelled compound; co-substrate compound 2 (33.3 μM), CE assay, 20 mM MnCl2, MOPS pH 7.0, 37 °C", "description": "(§1) capillary electrophoresis with LIF detection on AAGlyB (GTA-L266G/G268A)"}, "[4]": {"substrate": "O=c1[nH]c(=O)n([C@@H]2O[C@H](COP(=O)(O)OP(=O)(O)O[C@H]3O[C@H](CO)[C@H](O)[C@H](O)[C@H]3O)[C@@H](O)[C@H]2O)cc1-c1ccccc1", "assay": "capillary electrophoresis with LIF detection", "format": "biochemical, Homo sapiens", "settings": "50 μM tetramethylrhodamine-labeled HAA, 20 mM MnCl2, 50 mM MOPS pH 7.0, 37 °C", "description": "as §1"}},
  "data": [
    {"molecule": "O=c1ccn([C@@H]2O[C@H](COP(=O)(O)OP(=O)(O)O)[C@@H](O)[C@H]2O)c(=O)[nH]1", "note": "[UDP]", "values": [
      {"measurement": "X-ray crystallography (1.8 Å)", "setting": "[1]", "result": "The AAGlyB-UDP-HAA structure shows very well defined electron density"}
    ]},
    {"molecule": "O=c1[nH]c(=O)n([C@@H]2O[C@H](COP(=O)(O)OP(=O)(O)O[C@H]3O[C@H](CO)[C@H](O)[C@H](O)[C@H]3O)[C@@H](O)[C@H]2O)cc1-c1ccccc1", "note": "[compound 2, UDP-Gal derivative 2]", "values": [
      {"measurement": "Ki", "setting": "[2]", "result": 3, "unit": "µM"}
    ]},
    {"molecule": "α-Fucp-(1→2)-β-Galp-O-(CH2)8CONH(CH2)2NH-CO-tetramethylrhodamine", "values": [
      {"measurement": "Km", "setting": "[3]", "result": "56 ± 3", "unit": "µM"}
    ]},
    {"molecule": "B1", "values": [
      {"measurement": "Km", "setting": "[4]", "result": "6.5 ± 0.5", "unit": "µM"},
      {"measurement": "kcat", "setting": "[4]", "result": "0.006 ± 0.0008", "unit": "s⁻¹"}
    ]}
  ]
}
